According to patent publication US12233061B2, “Microvascular angina” (THE UNIVERSITY COURT OF THE UNIVERSITY OF GLASGOW, priority 2019, dated 2025):
Entries after “also recorded” stand apart in the source; their conditions may differ. Like-named read-outs stand apart in the source and are kept apart here. Where a SMILES comes first, the peptide text is derived from it.

Experiments:
[1] = tested on: resistance arteries; test: Wire myography: relaxation to dilator agonists after preconstriction with U46619 (Example 2); format: cell-based, human; details: median; for IC50 / Emax: Homo sapiens; for Emax: read-out: Emax (maximum relaxation after preconstriction with U46619)
[2] = tested on: small peripheral resistance vessels; test: Wire myography by rs9349379 genotype: vasodilator response to ACh; format: cell-based; details: Homo sapiens, 95% CI; for EC50: read-out: ACh pEC50 (converted)
[3] = biological target: T1, ETA receptor (Homo sapiens, UniProt P25101); test: ET-1 cumulative concentration response curves after antagonist preincubation, Schild plot pA2 (Example 3); format: cell-based; details: microvessels pre-treated with antagonist
T1 construct: Small peripheral resistance vessels (<400 μm) were carefully dissected from fresh biopsies using a light microscope; from tissue; host or cells: small peripheral resistance arteries from gluteal skin fat biopsies of angina patients
T1 sequence (P25101 21-427): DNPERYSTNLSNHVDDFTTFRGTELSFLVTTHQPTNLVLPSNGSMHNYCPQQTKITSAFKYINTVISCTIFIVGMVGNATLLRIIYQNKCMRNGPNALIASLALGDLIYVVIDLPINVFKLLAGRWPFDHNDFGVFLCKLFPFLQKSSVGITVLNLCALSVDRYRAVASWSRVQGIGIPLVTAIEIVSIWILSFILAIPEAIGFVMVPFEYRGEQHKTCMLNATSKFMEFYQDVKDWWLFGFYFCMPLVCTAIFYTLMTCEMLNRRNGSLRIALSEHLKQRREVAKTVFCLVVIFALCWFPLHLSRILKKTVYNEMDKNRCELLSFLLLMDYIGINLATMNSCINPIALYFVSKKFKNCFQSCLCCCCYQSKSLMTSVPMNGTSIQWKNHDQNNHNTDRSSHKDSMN

[4] = biological target: T1, ETA receptor; test: Paired ET-1 CCRCs with and without ETA antagonist, pKB by Schild regression (Examples 4 and 5); format: cell-based; details: for Kb: pKB
Protocol: (§1) Ex vivo pharmacological assessment of peripheral vascular function was performed on patients who volunteered to undergo a gluteal skin fat biopsy within 4 weeks of the invasive coronary function assessment. The biopsy was obtained under sterile conditions using local anaesthesia with lidocaine (2%). Small peripheral resistance vessels (<400 μm) were carefully dissected from fresh biopsies using a light microscope. About 2 mm length vessels were mounted on 40-μm stainless steel wires for isometric myography in multi-channel myograph chambers (DMT, Denmark) filled with physiological saline solution. […] This vascular biology sub-study was an extension of our work in INOCA subjects that was previously published in this journal.^31A The detailed methods are described in the Supplementary material online, Appendix.
(§2) The peripheral vascular sensitivity to ET-1 (pEC50) and maximum vasoconstriction to ET-1 (Eumax) were determined. For the antagonist studies, the affinity (KB) of BQ123 was first determined in paired vessels from individuals and calculated using Schild regression. The pKB (−log10 KB) values were compared between each genotype as an indicator of whether or not patients of different genotypes are likely to respond equally well to an ETA antagonist used clinically.

[5] = tested on: resistance arteries; test: Wire myography: contractile response to constrictor agonists, relative to KPSS (Example 2); format: cell-based, human; details: for Emax (percentage of maximum response to KPSS solution) / pEC50: median
[6] = tested on: small peripheral resistance vessels; test: Wire myography by rs9349379 genotype: vasoconstriction to ET-1; format: cell-based, human; details: 95% CI
Protocol: as §1, §2

[7] = tested on: human mammary resistance arteries; details: compared with bosentan; cited from earlier work
[8] = GTN half-life and remaining dose; details: human, in vivo, other: intra-arterial; after 10 min; read-out: share of the dose bioavailable
[9] = tested on: coronary microvascular endothelial function; details: 10 mg PO daily for 6 months; IC-ACh; cited from earlier work
[10] = subjects with low myocardial perfusion homogeneity; cited from earlier work
[11] = cited from earlier work
[12] = tested on: small peripheral resistance arteries; test: Reversal of an established ET-1-mediated vessel constriction, wire myography; format: cell-based, human; details: clinically relevant concentrations

In the case of `CC(=O)OCC[N+](C)(C)C` [ACh, Acetylcholine], the IC50 ([1]; MVA patients) is reported as 79.4 nM, the Emax ([1]; MVA patients) is reported as 77.6% and the IC50 ([1]; VSA patients) is reported as 79.4 nM. The Emax ([1]; VSA patients) was 79%, the IC50 ([1]; control subjects) was 50.1 nM and the Emax ([1]; control subjects) was 98.7%. The “Emax (maximum relaxation after preconstriction with U46619)” value ([1]; control subjects) was 98%, the Emax ([2]; genotype AA) was 77.7% and the EC50 ([2]; genotype AA) was 52.5 nM. It also gave an Emax ([2]; genotype AG) of 80.2%, an EC50 ([2]; genotype AG) of 55 nM and an Emax ([2]; genotype GG) of 92.5%. It also gave an EC50 ([2]; genotype GG) of 110 nM.
For `CC(C)C[C@@H]1NC(=O)[C@@H](C(C)C)NC(=O)[C@@H]2CCCN2C(=O)[C@@H](CC(=O)O)NC(=O)[C@@H](Cc2c[nH]c3ccccc23)NC1=O` [BQ123] (HELM PEPTIDE1{L.[dW].[dD].P.[dV]}$PEPTIDE1,PEPTIDE1,1:R1-5:R2$$$V2.0), the “effect on the ET-1 constrictor response (shift of ET-1 CCRC)” value [3] was “also inhibits the ET-1 response; also recorded: an effect comparable to that of zibotentan”, the “effect on the ET-1 CCRC and constrictor responses” value ([4]; all genotype groups) was “parallel rightward shift of the CCRC to ET-1 in all arteries; also recorded: fully blocked the constrictor responses in all of the groups” and the Kb ([4]; all genotypes pooled, mean (95% CI)) was 29.5 nM. For the same compound, the Kb ([4]; rs9349379 genotype AA, ±SEM) was 85.1 nM, the Kb ([4]; rs9349379 genotype AG, ±SEM) was 16.2 nM and the Kb ([4]; rs9349379 genotype GG, ±SEM) was 38.9 nM.
With `CCCC[C@@H](NC(=O)[C@@H](Cc1cn(C(=O)OC)c2ccccc12)NC(=O)[C@H](CC(C)(C)C)NC(=O)N1[C@H](C)CCC[C@@H]1C)C(=O)O` [BQ788] the “effect on the ET-1 constrictor response (shift of ET-1 CCRC)” value [3] was “only minimal shift in the ET-1 response; also recorded: negligible effect on the ET-1 constrictor response”.
With `CC[C@H](C)[C@H](NC(=O)[C@H](CC(=O)O)NC(=O)[C@H](CC(C)C)NC(=O)[C@H](Cc1c[nH]cn1)NC(=O)[C@@H]1CSSC[C@H](N)C(=O)N[C@@H](CO)C(=O)N[C@H]2CSSC[C@H](NC(=O)[C@H](CCC(=O)O)NC(=O)[C@H](CCCCN)NC(=O)[C@H](CC(=O)O)NC(=O)[C@H](CCSC)NC(=O)[C@H](CC(C)C)NC(=O)[C@H](CO)NC(=O)[C@H](CO)NC2=O)C(=O)N[C@@H](C(C)C)C(=O)N[C@@H](Cc2ccc(O)cc2)C(=O)N[C@@H](Cc2ccccc2)C(=O)N1)C(=O)N[C@H](C(=O)N[C@@H](Cc1c[nH]c2ccccc12)C(=O)O)[C@@H](C)CC` [ET-1] the “Emax (percentage of maximum response to KPSS solution)” value ([5]; MVA patients) was 121%, the pEC50 ([5]; MVA patients) was 9.6 and the “Emax (percentage of maximum response to KPSS solution)” value ([5]; VSA patients) was 125%. For the same compound, the pEC50 ([5]; VSA patients) was 9.5, the “sensitivity of resistance arteries to constrictor effects of ET-1 compared with U46619” value ([5]; all groups) was “around 50 fold” and the “Emax (percentage of maximum response to KPSS solution)” value ([5]; control subjects) was 100%. For the same compound, the pEC50 ([5]; control subjects) was 9.3, the “ET-1 Emax (maximum vasoconstriction)” value ([6]; genotype AA) was 122.3% and the “ET-1 pEC50” value ([6]; genotype AA) was 9.34. For the same compound, the “ET-1 Emax (maximum vasoconstriction)” value ([6]; genotype AG) was 115.5%, the “ET-1 pEC50” value ([6]; genotype AG) was 9.45 and the “ET-1 Emax (maximum vasoconstriction)” value ([6]; genotype GG) was 129.7%. The “ET-1 pEC50” value ([6]; genotype GG) was 9.32.
For `CC(C)C[C@H](NC(=O)N1CCCCCC1)C(=O)N[C@H](Cc1cn(C)c2ccccc12)C(=O)N[C@H](Cc1ccccn1)C(=O)O` [FR139317], the “blocking of ET-1 induced contractions” value [7] is given as “less effective than the dual ETAR/ETBR antagonist bosentan”.
`O=[N+]([O-])OCC(CO[N+](=O)[O-])O[N+](=O)[O-]` [GTN, glyceryl trinitrate] gave a bioavailability at 10 min [8] of 3%.
In the case of `CCCCC[C@H](O)/C=C/[C@@H]1[C@@H](C/C=C\CCCC(=O)O)[C@H]2CO[C@@H]1C2` [U46619], the “Emax (percentage of maximum response to KPSS solution)” value ([5]; MVA patients) is reported as 143%, the pEC50 ([5]; MVA patients) is reported as 8.0 and the “Emax (percentage of maximum response to KPSS solution)” value ([5]; VSA patients) is reported as 141%. The pEC50 ([5]; VSA patients) was 7.5, the “Emax (percentage of maximum response to KPSS solution)” value ([5]; control subjects) was 109% and the pEC50 ([5]; control subjects) was 7.50.
For `CCCCN(CCCC)C(=O)CN1C[C@H](c2ccc3c(c2)OCO3)[C@@H](C(=O)O)[C@@H]1c1ccc(OC)cc1` [atrasentan], the “coronary microvascular endothelial function” value [9] is listed as “improved coronary microvascular endothelial function”.
For `COc1cc(OC)nc(O[C@H](C(=O)O)C(OC)(c2ccccc2)c2ccccc2)n1` [darusentan], the flow homogeneity [10] is given as “increases flow homogeneity”.
For `Cc1cc2c(cc1CC(=O)c1sccc1S(=O)(=O)Nc1onc(C)c1Cl)OCO2` [sitaxentan], the exercise time ([11]; HFpEF patients, compared to placebo) is given as “increase in exercise time compared to placebo” and the hepatotoxicity ([11]; in vivo) is given as “withdrawn from development owing to hepatotoxicity”.
With `COc1nc(C)cnc1NS(=O)(=O)c1cccnc1-c1ccc(-c2nnco2)cc1` [zibotentan, N-(3-Methoxy-5-methylpyrazin-2-yl)-2-[4-(1,3,4-oxadiazol-2-yl)phenyl]pyridine-3-sulfonamide] the “reversal or inhibition of an established constrictor response to ET-1” value [12] was “concentration-dependent inhibition of an established constrictor response to ET-1; also recorded: fully reversed an established endothelin-1 vasoconstriction” and the “reversal or inhibition of an established constrictor response to ET-1” value ([12]; listed as Zibotentan) was “concentration-dependent inhibition of an established constrictor response to ET-1; also recorded: reversed ET-1-induced vasoconstriction independently of G allele status; also recorded: reversed an established ET-1-mediated vasoconstriction; also recorded: rapidly and fully reversed the established endothelin-1 constrictor response”.
